Experimental data published in paper PMC9268100, “Chelation of Theranostic Copper Radioisotopes with S-Rich Macrocycles: From Radiolabelling of Copper-64 to In Vivo Investigation” (Molecules, 2022).

Legend:
[1] = Stability in phosphate-buffered saline; assay type: physicochemical; details: 25 MBq/nmol, 24 h; for intact complex in PBS: no radioprotectant, ambient temperature
Experimental: The stability of the preformed [^64Cu]Cu^2+ complexes in phosphate-buffered saline (PBS) was explored by diluting the labelling solution 1:1 v/v in PBS (pH 7.4). Both low and high molar activities (0.1 MBq/nmol and 25 MBq/nmol, respectively) were employed to evaluate the effect of radiolysis. Radioprotectants (ethanol 10% v/v or ascorbic acid 10% v/v) were added to PBS to quench the radiolysis phenomena. The [^64Cu]Cu^2+ complex stabilities were investigated at different time points after preparation using the TLC or UHPLC protocols reported previously.

Human serum stability = assay type: in vitro ADME; details: prepared at 25 MBq/nmol, 37 °C, over 24 h
Experimental: Human serum stability assays were performed as follow: the preformed [^64Cu]Cu^2+ complexes (prepared at 25 MBq/nmol) were diluted 1:5 v/v in human serum. The samples were incubated at 37 °C to simulate the biological environment. At the defined time point, 50 μL of the plasma-containing mixture were added to 200 μL of ice-cold methanol (0.16 MBq/μL final concentration) and centrifuged for 3 min at 8000 rpm. Afterwards, 2 μL of supernatant were spotted on TLC plates developed using the previous protocols. Dissociation of [^64Cu]Cu^2+ from the complexes was also monitored at varying time points using the same procedure with the exception that no proteins were precipitated. In this case, 2 μL of human plasma containing the labelled complex was directly spotted on the TLC plate. […] Both procedures were validated by incubating free [^64Cu]Cu^2+ with human plasma.

[2] = In vivo stability in blood and urine samples (radio-TLC); parameters: species or system BALB/c nude mice
Experimental: All procedures involving animals were performed in accordance with ethical protocols approved by the Italian Ministry of Health (n. 44/2021-PR). Six-week-old female BALB/c nude mice (n = 9) were purchased from Charles River/Envigo and divided into three groups. Mice (n = 3/group) were administered with 7–14 MBq (depending on acquisition time after injection) of [^64Cu][Cu(DO2A2S)] solution by caudal intravenous injection. The exact amount of injected radioactivity was determined using a Capintec CRC-15PET dose calibrator. Micro PET/CT data were collected at 1, 4, and 24 h post injection using a Bruker Albira Si. Mice were anaesthetized with 1–2% isoflurane in a flow of oxygen (2 L/min 100% O2) and images were acquired over 20 min (10 min for PET and CT images acquisition, respectively). […] Radioactivity associated with organs was measured using a γ-spectrometer based on a 1″×1″ inch cylindrical LBC (Lanthanum BromoChloride), LaBr2.85Cl0.15:Ce, inorganic scintillator manufactured by SCIONIX coupled to a HAMAMATSU R11102 Photomultiplier tube (PMT) which was previously characterized and validated against a Capintec CRC-15PET dose calibrator [48]. […] Radioactivity values were expressed as percentage of injected dose (mean ± SEM) per gram of tissue or organ (% ID/g). […]

[3] = Biodistribution in BALB/c nude mice; assay type: in vivo
Experimental: All procedures involving animals were performed in accordance with ethical protocols approved by the Italian Ministry of Health (n. 44/2021-PR). Six-week-old female BALB/c nude mice (n = 9) were purchased from Charles River/Envigo and divided into three groups. Mice (n = 3/group) were administered with 7–14 MBq (depending on acquisition time after injection) of [^64Cu][Cu(DO2A2S)] solution by caudal intravenous injection. The exact amount of injected radioactivity was determined using a Capintec CRC-15PET dose calibrator. Micro PET/CT data were collected at 1, 4, and 24 h post injection using a Bruker Albira Si. Mice were anaesthetized with 1–2% isoflurane in a flow of oxygen (2 L/min 100% O2) and images were acquired over 20 min (10 min for PET and CT images acquisition, respectively). PET data were reconstructed using MLEM GPU (Graphics Processing Unit), while Filter Back Projection Algorithm was used for reconstructing CT images. Mice were euthanized by cervical dislocation immediately following the PET/CT scan and organs and tissues of interest were collected and weighed. Radioactivity associated with organs was measured using a γ-spectrometer based on a 1″×1″ inch cylindrical LBC (Lanthanum BromoChloride), LaBr2.85Cl0.15:Ce, inorganic scintillator manufactured by SCIONIX coupled to a HAMAMATSU R11102 Photomultiplier tube (PMT) which was previously characterized and validated against a Capintec CRC-15PET dose calibrator [48]. The results were corrected for decay to the time of injection. Radioactivity values were expressed as percentage of injected dose (mean ± SEM) per gram of tissue or organ (% ID/g). Concurrently, blood and urine aliquots (1 μL) were sampled for stability tests, which were carried out by radio-TLC scans (Cyclone, Perkin Elmer) by using silica gel 60 RP-18 F254S plates and 0.1 M sodium citrate as eluent.

[4] = Stability assay with DOTA (1000:1 DOTA-to-ligand); assay type: physicochemical; details: RT
Experimental: (§1) The stability of the preformed [^64Cu]Cu^2+ complexes was assessed by adding a 1000:1 DOTA/cysteine-to-ligand molar ratio excess. The incubation temperature was set at 37 °C when cysteine was used to simulate the biological environment, whilst it was kept at RT when DOTA was employed as a challenging agent.
(§2) The complex stability was evaluated over time by withdrawing an aliquot from the reaction mixtures. The latter was analyzed by UHPLC using the method described above.

[5] = Stability assay with cysteine (1000:1 Cys-to-ligand); assay type: physicochemical; details: 37 °C
Experimental: as §1, §2

[6] = maximum reached over 1-24 h post-injection

SMILES	% of intact complex, DOTA, 0 h [4]	% of intact complex, DOTA, 7 h [4]	% of intact complex, DOTA, 24 h [4]	% of intact complex, Cysteine, 0 h [5]	% of intact complex, Cysteine, 3 h [5]	% of intact complex, Cysteine, 24 h [5]	other results
CSCCN1CCN(CC(=O)O)CCN(CCSC)CCN(CC(=O)O)CC1 [DO2A2S, 1,7-bis[2-(methylsulfanyl)ethyl]-4,10,diacetic acid-1,4,7,10-tetraazacyclododecane]							intact complex in PBS with ascorbic acid ([1]; ascorbic acid 10% v/v): ~ 90%; intact complex in PBS [1]: ~ 25%
CSCCN1CCN(CCSC)CCN(CCSC)CCN(CCSC)CC1 [DO4S, 1,4,7,10-Tetrakis[2-(methylsulfanyl)ethyl]-1,4,7,10-tetraazacyclododecane]							intact complex in PBS [1]: ~ 70%
CSCCN1CCN(CC(=O)[O-])CCN(CCSC)CCN(CC(=O)[O-])CC1.[64Cu+2] [[^64Cu][Cu(DO2A2S)]]	91%	90%	87%	100%	85%	74%	intact complex in human serum (Human serum stability): > 99%; free-[^64Cu]Cu^2+/+ in urine samples ([2]; 4 h post-injection): ~50%; free copper-64 in blood samples ([2]; within 24 h from the injection): less than 5%; blood levels ([3]; 1 h post-injection, tail vein): < 2 % ID/g; kidneys uptake ([3]; 1 h post-injection, tail vein): 14.1 % ID/g; liver uptake ([3]; 1 h post-injection, tail vein): 14.0 % ID/g; lungs uptake ([3]; 1 h post-injection, tail vein): 8 % ID/g; pancreas uptake ([3]; 1 h post-injection, tail vein): 3 % ID/g; retention in bone ([3]; 1 h post-injection, tail vein): < 2 % ID/g; retention in muscle ([3]; 1 h post-injection, tail vein): < 1 % ID/g; spleen uptake ([3]; 1 h post-injection, tail vein): 4 % ID/g; dose found at 1 h remaining in kidneys at 24 h ([3]; 24 h versus 1 h post-injection): 73%; dose found at 1 h remaining in liver at 24 h ([3]; 24 h versus 1 h post-injection): 82%; dose found at 1 h remaining in lungs at 24 h ([3]; 24 h versus 1 h post-injection): 75%; pancreas uptake, progressive accumulation over time [3, 6]: ≤ 5.5 % ID/g; spleen uptake, progressive accumulation over time [3, 6]: up to 5.3 % ID/g
CSCCN1CCNCCN(CCSC)CCN(CCSC)CC1.[64Cu+2] [[^64Cu][Cu(DO3S)]^2+]	100%	100%	100%	100%	100%	100%	
CNC(=O)CN1CCN(CCSC)CCN(CCSC)CCN(CCSC)CC1.[64Cu+2] [[^64Cu][Cu(DO3SAm)]^2+]	100%	80%	38%	100%	83%	72%	
CSCCN1CCN(CCSC)CCN(CCSC)CCN(CCSC)CC1.[64Cu+2] [[^64Cu][Cu(DO4S)]^2+]	100%	92%	88%	100%	100%	83%	complex stability in PBS with radioprotectants ([1]; ethanol 10% v/v or ascorbic acid 10% v/v): preserve the complex over 24 h
O=C([O-])CN1CCN(CC(=O)[O-])CCN(CC(=O)[O-])CCN(CC(=O)[O-])CC1.[64Cu+2] [[^64Cu][Cu(DOTA)]^2−, reference compound]							intact complex in human serum (Human serum stability): around 80%
